Values joined by “and” are separate entries in the source; they are usually repeats but may differ in a detail not shown here. Equal entries are not always repeated. “Also recorded” adds a separate entry of the source. Structures can show the parent of a compound that is named as a salt. Where two headings read alike, the source gives them in different places.
Experiments:
[1] = system: Madin Darby canine kidney (MDCK-I) cells; test: TEER in MDCK-I cells; assay type: cell-based; conditions: for 144-hour barrier (TEER) vs control: MDCK-I, treated at 72 hours; for effect on TEER (MAO A, B, AB inhibitors): no concentration given
Method: In each case, TEER was measured every 48 hours after treatment.
Transwell cultures were treated at 72 hours (T) post-cell plating.
Transepithelial Resistance (TER) is a common method to screen for barrier integrity. […] Fluorescein isothiocyanate conjugated 10 kD dextran (Invitrogen™) will be added to the apical Transwell™ compartment, fixed, and examined for dextran permeation (Umeda et al., 2006).
Amphiregulin (AR) is an EGFR binding ligand and may play a pivotal role in the previously described signaling axis (see FIGS. 15-17). […] (ii) GI [intestinal epithelial cell (IEC)] and (iii) classical [Madin-Darby canine kidney (MDCK-1)].

[2] = 14 week study, cited from earlier work
recombinant human MAO-B = biological target: T1, recombinant human MAO-B (Homo sapiens, UniProt P27338); test: Cell-free Fluorescent Monoamine Oxidase A&B Detection Assay, MAO-B; assay type: biochemical; conditions: for IC50: read-out: IC50 MAO-B
T1 sequence (P27338 1-520): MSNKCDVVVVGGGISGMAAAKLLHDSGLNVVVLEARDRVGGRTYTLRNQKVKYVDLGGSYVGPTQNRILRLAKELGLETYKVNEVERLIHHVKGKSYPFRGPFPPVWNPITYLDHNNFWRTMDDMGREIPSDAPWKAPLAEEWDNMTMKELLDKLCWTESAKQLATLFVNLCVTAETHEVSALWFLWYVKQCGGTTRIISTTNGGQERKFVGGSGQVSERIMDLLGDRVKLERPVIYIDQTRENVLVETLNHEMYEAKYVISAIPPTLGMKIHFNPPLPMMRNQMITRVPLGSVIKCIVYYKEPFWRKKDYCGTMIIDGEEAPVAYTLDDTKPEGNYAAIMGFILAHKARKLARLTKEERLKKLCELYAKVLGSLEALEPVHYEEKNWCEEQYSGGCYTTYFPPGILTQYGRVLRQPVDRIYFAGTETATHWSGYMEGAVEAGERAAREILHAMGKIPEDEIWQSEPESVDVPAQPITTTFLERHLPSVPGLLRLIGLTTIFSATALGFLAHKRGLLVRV
Method: (§1) The assay was repeated to confirm data.
(§2) MAO B specific inhibitory activity and selectivity over MAO A is assayed using a commercial kit [Fluoro MAO A and B detection kit (Cell Technology Inc™)]. This kit uses a non-fluorescent detection reagent to measure H2O2 released from the conversion of an MAO A and MAO B substrate specific to its aldehyde. Furthermore, H2O2 oxidizes the detection reagent in a 1:1 stoichiometry to produce a fluorescent product (resorufin). […] This information is then provided to the medicinal chemists to help direct synthesis of subsequent iterations.

recombinant human MAO-A = biological target: T2, recombinant human MAO-A (Homo sapiens, UniProt P21397); test: Cell-free Fluorescent Monoamine Oxidase A&B Detection Assay, MAO-A; assay type: biochemical; conditions: for IC50: read-out: IC50 MAO-A
T2 sequence (P21397 1-527): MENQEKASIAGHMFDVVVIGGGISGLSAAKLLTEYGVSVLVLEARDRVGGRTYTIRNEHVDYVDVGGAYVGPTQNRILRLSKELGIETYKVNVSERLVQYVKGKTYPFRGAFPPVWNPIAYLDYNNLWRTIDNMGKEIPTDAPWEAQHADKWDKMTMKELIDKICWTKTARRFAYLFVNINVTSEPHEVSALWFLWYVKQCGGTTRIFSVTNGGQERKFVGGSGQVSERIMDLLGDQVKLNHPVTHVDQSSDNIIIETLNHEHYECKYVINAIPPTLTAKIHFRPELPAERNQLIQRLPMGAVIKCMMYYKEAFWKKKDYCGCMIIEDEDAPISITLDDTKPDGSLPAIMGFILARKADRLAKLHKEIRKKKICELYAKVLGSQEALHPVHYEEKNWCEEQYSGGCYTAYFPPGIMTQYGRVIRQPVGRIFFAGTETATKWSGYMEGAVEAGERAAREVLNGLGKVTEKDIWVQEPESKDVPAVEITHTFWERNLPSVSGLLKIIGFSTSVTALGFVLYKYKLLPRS
Method: as §1, §2

[3] = in vitro BBB permeability in MDCK-WT cells; conditions: dog, MDCK
Text: (§3) Wildtype Madin-Darby canine cells (MDCK-WT) were used to predict CNS permeability of compounds PS-RG0103, PS-RG0216, PS-RG0245 and PS-AD0191. […] J Allergy Clin Immunol. 1990; 86(6 pt 2): p. 1025-8.
(§4) Novel MAO B inhibitors selected based on the above screening program will be screened using an in vitro model of blood brain barrier (BBB). Madin-Darby canine kidney (MDCK-WT) and MDCK cells transfected with the human MDR1 gene (MDCK-MDR1) are well established in vitro models used to predict a compound's ability to permeate the blood brain barrier (BBB). […] Apparent permeability (Papp), Efflux ratio (Papp B-A/Papp A-B), as well as the Net flux ratio (Efflux ratioMDCK-MDR1/Efflux ratioMDCK-WT) can be calculated to identify compound BBB permeability and identify compounds that are substrates of P-gp.

[4] = hepatocytes, 1 h
[5] = stability assay in human liver microsomes; conditions: after 60 minutes at room temperature
[6] = stability assay in mouse liver microsomes; conditions: after 60 minutes at room temperature
[7] = system: IL-8 protein expression in Caco-2 cells; test: IL-8 protein expression in LPS- and TNFα-treated Caco-2 cells; assay type: cell-based, human; conditions: Caco-2, 1 μg/mL LPS or 50 ng/mL TNFα + 20 μM compound, 4, 12 or 24 h
Method: Caco-2 cells were seeded at 83300 cells/cm^2 on a polystyrene 96-well plate in DMEM medium (#10313-021, Gibco™) containing 10% FBS. On day 5 after seeding, wells were replaced with fresh media containing 2.5% FBS. […] Supernatants of the treated cells were analyzed for pro- and anti-inflammatory cytokine proteins using the Human Proinflammatory 7-Plex Ultra-Sensitive Kit™ (K15008C, MSD™) measured by the Sector Imager 2400A (MSD™). Left panel: Absolute concentrations of IL-8 protein in supernatants of cells treated with control (media only), 1 μg/mL LPS or 50 ng/mL TNFα. […] Values were determined by subtracting supernatant cytokine concentrations of control from supernatant cytokine concentrations of treated cells. Results are expressed as mean±standard deviation (n=3).

[8] = system: Wildtype Madin-Darby canine cells (MDCK-WT); test: in vitro BBB permeability in MDCK-WT cells; conditions: MDCK-WT; one-way ANOVA, Dunnett's test
Text: as §3, §4

[9] = cell-free, recombinant human MAO-A
[10] = cell-free, recombinant human MAO-A, read-out: IC90 MAO-A
[11] = cell-free, recombinant human MAO-A, hydrochloride

C#CCN(C)Cc1ccccc1 [pargyline]
144-hour barrier (TEER) vs control ([1]; 5 μm inhibitor): increased over control
144-hour barrier (TEER) vs control ([1]; 40 μm inhibitor): increased over control
effect on TEER (MAO A, B, AB inhibitors) [1]: increased TEER

C#CCN(C)[C@H](C)Cc1ccccc1 [L-selegiline]
total body fat reduction compared to control rats [2]: 30%
food intake vs untreated controls ([2]; rats): comparable
lower weight gain compared to untreated controls ([2]; rats): 14%
plasma leptin levels reduction ([2]; rats): 41%

CN(CC(=O)O)[C@H](CC#N)Cc1ccc(OCc2ccc(Cl)c(Cl)c2)cc1.Cl [PS-AD0191, (S)—N-(1-cyano-3-(4-((3,4-dichlorobenzyl)oxy)phenyl)propan-2-yl)-N-methylglycine]
IC90 (recombinant human MAO-B): 1.03 µM
IC50 (recombinant human MAO-B): 0.3 µM and 0.302 µM
IC50 (recombinant human MAO-A; [9]): 54.6 µM
IC90 (recombinant human MAO-A; [10]): 424 µM
Papp [3]: 7.9 ± 1.4 ×10⁻⁶ cm/s

C[C@H](Cc1ccc(OCc2cccc(Cl)c2)cc1)N(C)CC(=O)O [PS-RG0103, N—((R)-(1-(4-(3-chlorobenzyloxy)phenyl)propan-2-yl)(methyl))glycine hydrochloride]
compound remaining, mouse hepatocyte stability [4]: 101%
compound remaining in human microsome [5]: 93%
IC90 (recombinant human MAO-B): 2.27 µM
IC50 (recombinant human MAO-B): 0.27 µM and 0.275 µM
IC50 MAO-A (μM) (recombinant human MAO-A; [11]): no activity on MAO-A; also recorded: Does not
Papp [3]: 2.2 ± 0.2 ×10⁻⁶ cm/s
compound remaining in mouse microsome [6]: 69%

C[C@H](Cc1ccc(OCc2ccc(Br)c(Cl)c2)cc1)N(C)CC(=O)O.Cl [PS-RG0216, (R)—N-(1-(4-((4-bromo-3-chlorobenzyl)oxy)phenyl)propan-2-yl)-N-methylglycine hydrochloride]
compound remaining, mouse hepatocyte stability [4]: 100%
compound remaining in human microsome [5]: 91%
IC90 (recombinant human MAO-B): 1.02 µM
IC50 (recombinant human MAO-B): 0.2 µM and 0.203 µM
IL-8 protein expression [7]: attenuation of IL-8 protein expression
IC50 MAO-A (μM) (recombinant human MAO-A; [11]): no activity on MAO-A; also recorded: Does not
Papp [3]: 1.2 ± 0.1 ×10⁻⁶ cm/s
permeability compared with cetirizine [8]: not different from cetirizine
compound remaining in mouse microsome [6]: 74%

C#CCN(C)CCCOc1ccc(Cl)cc1Cl [Clorgyline]
IC90 (recombinant human MAO-A; read-out: IC90 MAO-A (μM)): 0.00624 µM
144-hour barrier (TEER) vs control ([1]; 5 μm inhibitor): significantly reduced the barrier
144-hour barrier (TEER) vs control ([1]; 40 μm inhibitor): significantly reduced the barrier
effect on TEER (MAO A, B, AB inhibitors) [1]: generally reduced TEER

C[C@H](Cc1ccc(OCc2ccc(Cl)c(Cl)c2)cc1)N(C)CC(=O)O.Cl [PS-RG0245, (R)—N-(1-(4-((3,4-dichlorobenzyl)oxy)phenyl)propan-2-yl)-N-methylglycine hydrochloride]
IC90 (recombinant human MAO-B): 0.873 µM
IC50 (recombinant human MAO-B): 0.21 µM and 0.207 µM
IC50 (recombinant human MAO-A; [9]): 17.2 µM and 17.1 µM
IC90 (recombinant human MAO-A; [10]): 99.8 µM
Papp [3]: 3.6 ± 0.2 ×10⁻⁶ cm/s
permeability compared with cetirizine [8]: not different from cetirizine

COC(=O)c1ccc(COc2ccc(C[C@@H](C)N(C)CC(=O)O)cc2)cc1.Cl [PS-RG0246, (R)—N-(1-(4-((4-(methoxycarbonyl)benzyl)oxy)phenyl)propan-2-yl)-N-methylglycine hydrochloride]
IC90 (recombinant human MAO-B): 10600 µM
IC50 (recombinant human MAO-B): 361 µM
IC50 MAO-A (μM) (recombinant human MAO-A; [9]): Does not

CN(CC(=O)O)[C@H](CCl)Cc1ccc(OCc2ccccc2)cc1 [PS-AD0095, (S)—N-(1-(4-(benzyloxy)phenyl)-3-chloropropan-2-yl)-N-methylglycine]
IC90 (recombinant human MAO-B): 13.4 µM
IC50 (recombinant human MAO-B): 1.4 µM
IC50 MAO-A (μM) (recombinant human MAO-A; [9]): Does not

O=C(NCCN1CCOCC1)c1ccc(Cl)cc1 [moclobemide]
144-hour barrier (TEER) vs control ([1]; 5 μm inhibitor): increased over control
barrier integrity at low doses ([1]; low doses): small increase in the barrier integrity
effect on TEER (MAO A, B, AB inhibitors) [1]: generally reduced TEER

C[C@H](Cc1ccc(OCCc2ccccc2)cc1)N(C)CC(=O)O.Cl [PS-RG0247]
IC90 (recombinant human MAO-B): 619 µM
IC50 (recombinant human MAO-B): 19.3 µM
IC50 MAO-A (μM) (recombinant human MAO-A; [9]): Does not

C[C@H](Cc1ccc(OCc2ccccc2Cl)cc1)N(C)CC(=O)O [PS-RG0121, N—((R)-(1-(4-(2-chlorobenzyloxy)phenyl)propan-2-yl)(methyl))glycine hydrochloride]
IC90 (recombinant human MAO-B): 8.13 µM
IC50 (recombinant human MAO-B): 0.668 µM
IC50 MAO-A (μM) (recombinant human MAO-A; [9]): Does not

CN(CCc1ccc(Oc2ccccc2)cc1)CC(=O)O.Cl [PS-RG0058]
IC90 MAO-B (μM) (recombinant human MAO-B): Does not
IC50 MAO-A (μM) (recombinant human MAO-A; [9]): Does not
